Assays:
[1] = system: large intestine cancer patients; assay: Treatment of large intestine cancer patients (Example 2); type: in vivo, human; details: Table 2
Text: Next, treatment of 11 large intestine cancer patients is described.
In principle, the same as Example 1.
The following is course of treatment of the large intestine cancer patients.

[2] = cited from earlier work

In the case of `O=C1O[C@H]([C@@H](O)CO)C(O)=C1O` [vitamin C, ascorbic acid], the Alive or dead [1] is given as “Alive”, the stability to heat ([2]; heat) is given as “weak to heat” and the oxidation reduction potential ([2]; pH 7.0) is given as “+0.058 V”.

From US20110092548A1, “METHOD FOR TREATING/PREVENTING DISEASE USING COGNITIVE ABILITY OF CEREBRUM AND PHARMACEUTICAL” (priority 2006, published 2011)
